Counter-ions that a name gives are not always drawn.

Chain of recombinant human cannabinoid 1 receptor (CB1) (P21554 whole entry): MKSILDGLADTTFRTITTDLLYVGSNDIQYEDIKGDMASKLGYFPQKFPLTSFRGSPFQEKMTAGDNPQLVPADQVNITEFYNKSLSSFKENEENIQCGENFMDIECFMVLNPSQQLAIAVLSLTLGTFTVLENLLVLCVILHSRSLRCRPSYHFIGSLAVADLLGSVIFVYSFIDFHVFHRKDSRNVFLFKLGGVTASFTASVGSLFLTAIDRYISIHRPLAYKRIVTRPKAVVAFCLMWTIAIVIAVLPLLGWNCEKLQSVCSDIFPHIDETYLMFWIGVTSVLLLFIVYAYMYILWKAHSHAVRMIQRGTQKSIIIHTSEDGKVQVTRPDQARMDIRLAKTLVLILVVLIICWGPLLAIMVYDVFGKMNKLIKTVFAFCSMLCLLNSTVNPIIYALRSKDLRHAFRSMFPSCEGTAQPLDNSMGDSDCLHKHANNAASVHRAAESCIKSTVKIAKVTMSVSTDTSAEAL

For the first assay, the target named is recombinant human cannabinoid 1 receptor (CB1) (Homo sapiens, UniProt P21554). The experiment in a line: In vitro determination of antagonism to CB1-receptor ([35S]GTPγS binding assay, CHO cell membranes). Type of assay: biochemical. Particulars: compound at 1 μM against agonist WIN 55,212-2 (3 nM to 3 μM); effect of Rimonabant (1 μM) defined as 100%. How it is done:
Chinese hamster ovary (CHO) cells stably expressing recombinant human cannabinoid 1 receptor (CB1) were cultured in nutrient mixture Ham's F 12 supplemented with 10% heat-inactivated fetal bovine serum, 2 mM L-glutamine, 50 U/ml penicillin, 50 U/ml streptomycin and 0.5 mg/ml geneticin. In order to obtain cells, culture flasks were washed twice with phosphate buffered saline and scraped. Then, cells were collected by centrifugation (200×g, 10 min) and stored dry at −80° C. Cells were homogenized in ice-cold 20 mM HEPES, 10 mM EDTA (pH 7.5) and centrifuged at 40,000×g for 15 min at 4° C. The membrane pellet was resuspended in 20 mM HEPES, 0.1 mM EDTA (pH 7.5) and centrifuged for 15 min at 4° C. The final membrane pellet was resuspended in 20 mM HEPES, 0.1 mM EDTA (pH 7.5), and divided in aliquots and stored at −80° C. until use.
The reaction was performed in 96-well plates. Membranes (15 μg protein/well) were incubated for 60 min at 30° C. in buffer (50 mM HEPES, 100 mM KCl, 5 mM MgCl2,1 mM EDTA, 0.1% wt/vol bovine serum albumin, 5 μM GDP, saponin (10 μg/ml), 0.5 nM [^35S]GTPγS, pH 7.4) with compound at a final concentration of 1 μM in either the absence or presence of agonist WIN 55, 212-2 between 3 nM and 3 μM. The incubation was terminated by rapid filtration through Millipore Multiscreen glass fiber FB, and rinsed two-times with ice-cold assay buffer. Filter plates were dried and 30 μl of scintillation liquid was added. Radioactivity was determined using a Wallac Microbeta Trilux. Each experiment was performed at least in duplicate. A WIN 55, 212-2 dose-response experiment either alone or in the presence of Rimonabant (1 μM) was systematically performed.
The average of basal [^35S]GTPγS binding was subtracted from all binding data. In order to compare the antagonism results from one screening campaign to another one, the difference between the maximal agonist effect of WIN 55, 212-2 alone, and the maximal antagonism effect due to WIN 55, 212-2 plus Rimonabant (1 μM) was defined as 100%.
For orientation: GTPγS is a poorly hydrolysed GTP analogue; its binding reports G protein activation.
Take `CCN(C(=O)C1=NN(c2ccc(Cl)cc2Cl)C(c2ccc(Cl)cc2)C1)C1CCCCC1` (centres unmarked) [Example 33, 5-(4-Chloro-phenyl)-1-(2,4-dichloro-phenyl)-4,5-dihydro-1H-pyrazole-3-carboxylic acid cyclohexyl-ethyl-amide]: the “Antagonism [%]” value was found to be 2%.

`CCCCCC(C)NC(=O)C1=NN(c2ccc(Cl)cc2Cl)C(c2ccc(Cl)cc2)C1` (centres unmarked) [Example 35, 5-(4-Chloro-phenyl)-1-(2,4-dichloro-phenyl)-4,5-dihydro-1H-pyrazole-3-carboxylic acid (1-methyl-hexyl)-amide]: the “Antagonism [%]” value stood at 68%.

`CC(C)N(C(=O)C1=NN(c2ccc(Cl)cc2Cl)C(c2ccc(Cl)cc2)C1)C1CCCCC1` (centres unmarked) [Example 55, 5-(4-Chloro-phenyl)-1-(2,4-dichloro-phenyl)-4,5-dihydro-1H-pyrazole-3-carboxylic acid cyclohexyl-isopropyl-amide]: the “Antagonism [%]” value was found to be 30%.

Regarding `O=C(C1=NN(c2ccc(Cl)cc2Cl)C(c2ccc(Cl)cc2)C1)N1Cc2ccccc2C1` (centres unmarked) [Example 39, [5-(4-Chloro-phenyl)-1-(2,4-dichloro-phenyl)-4,5-dihydro-1H-pyrazol-3-yl]-(1,3-dihydro-isoindol-2-yl)-methanone], the “Antagonism [%]” value came out at 62%.

Take `O=C(NN1CCN(C2CCCC2)CC1)C1=NN(c2ccc(Cl)cc2Cl)C(c2ccc(Cl)cc2)C1` (centres unmarked) [Example 26, 5-(4-Chloro-phenyl)-1-(2,4-dichloro-phenyl)-4,5-dihydro-1H-pyrazole-3-carboxylic acid (4-cyclopentyl-piperazin-1-yl)-amide]: the “Antagonism [%]” value is reported as 52%.

Consider `O=C(NN1C(=O)c2cccc3cccc(c23)C1=O)C1=NN(c2ccc(Cl)cc2Cl)C(c2ccc(Cl)cc2)C1` (centres unmarked) [Example 24, 5-(4-Chloro-phenyl)-1-(2,4-dichloro-phenyl)-4,5-dihydro-1H-pyrazole-3-carboxylic acid (1,3-dioxo-1H,3H-benzo[de]isoquinolin-2-yl)-amide], for which the “Antagonism [%]” value was determined as 27%.

Take `CC1CCCCN1C(=O)C1=NN(c2ccc(Cl)cc2Cl)C(c2ccc(Cl)cc2)C1` (centres unmarked) [Example 46, [5-(4-Chloro-phenyl)-1-(2,4-dichloro-phenyl)-4,5-dihydro-1H-pyrazol-3-yl]-(2-methyl-piperidin-1-yl)-methanone]: the “Antagonism [%]” value is 53%.

On to `O=C(NC1CCCCCCC1)C1=NN(c2ccc(Cl)cc2Cl)C(c2ccc(Cl)cc2)C1` (centres unmarked) [Example 34, 5-(4-Chloro-phenyl)-1-(2,4-dichloro-phenyl)-4,5-dihydro-1H-pyrazole-3-carboxylic acid cyclooctylamide], for which the “Antagonism [%]” value came out at 60%.

As to `CN(C(=O)C1=NN(c2ccc(Cl)cc2Cl)C(c2ccc(Cl)cc2)C1)C1CCCCC1` (centres unmarked) [Example 47, 5-(4-Chloro-phenyl)-1-(2,4-dichloro-phenyl)-4,5-dihydro-1H-pyrazole-3-carboxylic acid cyclohexyl-methyl-amide], the “Antagonism [%]” value came to 28%.

Turning to `O=C(NC1CCC1)C1=NN(c2ccc(Cl)cc2Cl)C(c2ccc(Cl)cc2)C1` (centres unmarked) [Example 30, 5-(4-Chloro-phenyl)-1-(2,4-dichloro-phenyl)-4,5-dihydro-1H-pyrazole-3-carboxylic acid cyclobutylamide], the “Antagonism [%]” value amounted to 54%.

Turning to `O=C(NN1CC2CCCC2C1)C1=NN(c2ccc(Cl)cc2Cl)C(c2ccc(Cl)cc2)C1` (centres unmarked) [Example 10, 5-(4-Chloro-phenyl)-1-(2,4-dichloro-phenyl)-4,5-dihydro-1H-pyrazole-3-carboxylic acid (hexahydro-cyclopenta[c]pyrrol-2-yl)-amide], the “Antagonism [%]” value came to 119%.

For `CC(C)N(C(=O)C1=NN(c2ccc(Cl)cc2Cl)C(c2ccc(Cl)cc2)C1)C(C)C` (centres unmarked) [Example 50, 5-(4-Chloro-phenyl)-1-(2,4-dichloro-phenyl)-4,5-dihydro-1H-pyrazole-3-carboxylic acid diisopropylamide], the “Antagonism [%]” value came out at 18%.

`O=C(C1=NN(c2ccc(Cl)cc2Cl)C(c2ccc(Cl)cc2)C1)N1CCC1` (centres unmarked) [Example 40, Azetidin-1-yl-[5-(4-chloro-phenyl)-1-(2,4-dichloro-phenyl)-4,5-dihydro-1H-pyrazol-3-yl]-methanone]: the “Antagonism [%]” value is given as 32%.

Consider `Cl.O=C(NN1CCOCC1)C1=NN(c2ccc(Cl)cc2Cl)C(c2ccc(Cl)cc2)C1` (centres unmarked) [Example 9, 5-(4-Chloro-phenyl)-1-(2,4-dichloro-phenyl)-4,5-dihydro-1H-pyrazole-3-carboxylic acid morpholin-4-ylamide hydrochloride], for which the “Antagonism [%]” value turned out to be 53%.

For `O=C(NN1CCc2ccccc21)C1=NN(c2ccc(Cl)cc2Cl)C(c2ccc(Cl)cc2)C1` (centres unmarked) [Example 28, 5-(4-Chloro-phenyl)-1-(2,4-dichloro-phenyl)-4,5-dihydro-1H-pyrazole-3-carboxylic acid (2,3-dihydro-indol-1-yl)-amide], the “Antagonism [%]” value came to 63%.

Consider `O=C(NN1CCOCC1)C1=NN(c2ccc(Cl)cc2Cl)C(c2ccc(Br)cc2)C1` (centres unmarked) [Example 67, 5-(4-Bromo-phenyl)-1-(2,4-dichloro-phenyl)-4,5-dihydro-1H-pyrazole-3-carboxylic acid morpholin-4-ylamide], for which the “Antagonism [%]” value is 52%.

With `CN(C)C(=O)C1=NN(c2ccc(Cl)cc2Cl)C(c2ccc(Cl)cc2)C1` (centres unmarked) [Example 51, 5-(4-Chloro-phenyl)-1-(2,4-dichloro-phenyl)-4,5-dihydro-1H-pyrazole-3-carboxylic acid dimethylamide], the “Antagonism [%]” value was determined as 21%.

Turning to `O=C(C1=NN(c2ccc(Cl)cc2Cl)C(c2ccc(Cl)cc2)C1)N1CCCCCCC1` (centres unmarked) [Example 38, Azocan-1-yl-[5-(4-chloro-phenyl)-1-(2,4-dichloro-phenyl)-4,5-dihydro-1H-pyrazol-3-yl]-methanone], the “Antagonism [%]” value worked out at 45%.

As to `CN1CCN(C(=O)C2=NN(c3ccc(Cl)cc3Cl)C(c3ccc(Cl)cc3)C2)CC1` (centres unmarked) [Example 43, [5-(4-Chloro-phenyl)-1-(2,4-dichloro-phenyl)-4,5-dihydro-1H-pyrazol-3-yl]-(4-methyl-piperazin-1-yl)-methanone], the “Antagonism [%]” value is 25%.

Turning to `O=C(C1=NN(c2ccc(Cl)cc2Cl)C(c2ccc(Cl)cc2)C1)N1CCN(C2CCCCC2)CC1` (centres unmarked) [Example 21, [5-(4-Chloro-phenyl)-1-(2,4-dichloro-phenyl)-4,5-dihydro-1H-pyrazol-3-yl]-(4-cyclohexyl-piperazin-1-yl)-methanone], the “Antagonism [%]” value was determined as 66%.

Turning to `O=C(O)[C@@H]1CCCN1C(=O)C1=NN(c2ccc(Cl)cc2Cl)C(c2ccc(Cl)cc2)C1` (some centres unmarked) [Example 53, 1-[5-(4-Chloro-phenyl)-1-(2,4-dichloro-phenyl)-4,5-dihydro-1H-pyrazole-3-carbonyl]-pyrrolidine-2-carboxylic acid], the “Antagonism [%]” value is 14%.

Regarding `O=C(NC1CC1)C1=NN(c2ccc(Cl)cc2Cl)C(c2ccc(Cl)cc2)C1` (centres unmarked) [Example 36, 5-(4-Chloro-phenyl)-1-(2,4-dichloro-phenyl)-4,5-dihydro-1H-pyrazole-3-carboxylic acid cyclopropylamide], the “Antagonism [%]” value was −5%.

The same assay, now with this note: compound at 1 μM against agonist WIN 55,212-2 (3 nM to 3 μM); effect of Rimonabant (1 μM) defined as 100%; hydrochloride.
For the compound `O=C(NN1CC2CCCC2C1)C1=NN(c2ccc(Cl)cc2Cl)C(c2ccc(Cl)cc2)C1` (centres unmarked) [Example 193, 5-(4-Chloro-phenyl)-1-(2,4-dichloro-phenyl)-4,5-dihydro-1H-pyrazole-3-carboxylic acid (hexahydro-cyclopenta[c]pyrrol-2-yl)-amide hydrochloride], the “Antagonism [%]” value is given as 115%.

The values are drawn from patent publication US8207156B2, “Substituted pyrazoline compounds, their preparation and use as medicaments” (Laboratorios Del Dr. Esteve, S.A., priority 2005, dated 2012).
